Laboratory results taken from ChEMBL document CHEMBL1201862, “PubChem BioAssay data set” (2004).
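In this assay, cells in 96-well plates receive the compound at five concentrations for 48 hours. Endpoints are linearly interpolated between the surrounding concentrations. GI50 marks 50% less growth.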 Calls of active or inactive are those of the source. Cut-off read from the data, not from the text of the source: active = GI50 up to about 1.1 µM and inactive = higher. Non-standard residues stand in square brackets, D forms with d. Residues, ends and D or L forms follow the SMILES beside them. *: point of attachment. Ac5c = NC1(C(=O)O)CCCC1; Boc = CC(C)(C)OC(=O)*; tBu = CC(C)(C)*

Assays:
Assay in all cases: NCI anticancer screen, dose series, 48 h
[1] = test system: EKVX
[2] = test system: SK-MEL-2
[3] = test system: A549
[4] = test system: UACC-62
[5] = test system: HOP-62
[6] = test system: SK-MEL-28
[7] = test system: SF-268
[8] = test system: SR
[9] = test system: SW-620
[10] = test system: SNB-19
[11] = test system: IGROV-1
[12] = test system: NCI-H226
[13] = test system: SF-295
[14] = test system: LOX IMVI
[15] = test system: ACHN
[16] = test system: K562
[17] = test system: COLO 205
[18] = test system: UACC-257
[19] = test system: DU-145

Measured: GI50

COc1cc2c3c(c1OC)C(=O)C=C3N(S(=O)(=O)c1ccc(C)cc1)CC2
inactive: [1] > 100 µM | [2] > 100 µM | [3] > 100 µM | [4] > 100 µM | [5] 64.3 µM | [6] > 100 µM | [7] > 100 µM | [8] > 100 µM | [9] > 100 µM | [10] > 100 µM | [11] > 100 µM | [12] > 100 µM | [13] 77.8 µM | [14] > 100 µM | [15] 75.9 µM | [16] > 100 µM | [17] > 100 µM | [18] > 100 µM

CN1C(=O)c2cccc3c([N+](=O)[O-])ccc(c23)C1=O
inactive: [1] 13.7 µM | [2] 10.8 µM | [3] 12.7 µM | [4] 1.77 µM | [5] 12.1 µM | [6] 18.8 µM | [7] 9.68 µM | [8] 3.25 µM | [9] 2.43 µM | [10] 14.2 µM | [11] 3.49 µM | [12] 1.56 µM | [13] 14.5 µM | [14] 6.12 µM | [15] 10.1 µM | [16] 4.1 µM | [17] 7.26 µM | [18] 9.53 µM

C#CCSc1nc(N)c2ncn(C3OC(COP(=O)(O)O)C(O)C3O)c2n1 (configuration not stated)
inactive: [1] > 239 µM | [2] > 239 µM | [3] > 239 µM | [4] > 239 µM | [5] > 239 µM | [6] > 239 µM | [7] > 239 µM | [8] > 239 µM | [9] > 239 µM | [10] > 239 µM | [11] > 239 µM | [12] > 239 µM | [13] > 239 µM | [14] > 239 µM | [15] > 239 µM | [16] > 239 µM | [17] > 239 µM | [18] > 239 µM

O=C(O)/C=C/n1c2ccccc2c(=O)c2ccccc21
inactive: [1] > 100 µM | [2] > 100 µM | [3] > 100 µM | [4] > 100 µM | [5] > 100 µM | [6] > 100 µM | [7] > 100 µM | [8] > 100 µM | [9] > 100 µM | [10] > 100 µM | [11] > 100 µM | [12] > 100 µM | [13] > 100 µM | [14] > 100 µM | [15] > 100 µM | [16] > 100 µM | [17] > 100 µM | [18] > 100 µM

NC(CCC(=O)NC(CSC(=O)N(O)c1ccccc1)C(=O)NCC(=O)O)C(=O)O (configuration not stated)
inactive: [1] > 1000 µM | [2] > 1000 µM | [3] > 1000 µM | [4] > 1000 µM | [5] > 1000 µM | [6] > 1000 µM | [7] > 1000 µM | [8] > 1000 µM | [9] > 1000 µM | [10] > 1000 µM | [11] > 1000 µM | [12] > 1000 µM | [13] > 1000 µM | [14] > 1000 µM | [15] > 1000 µM | [16] > 1000 µM | [17] > 1000 µM | [18] > 1000 µM

CCOC(=O)c1sc2c(c1OC(=O)c1ccc(Cl)cc1Cl)c(=O)n(-c1ccccc1)c(=S)n2-c1ccccc1
inactive: [1] 17.1 µM | [2] 3.97 µM | [3] 8.55 µM | [4] 20 µM | [5] 10 µM | [6] > 76.4 µM | [7] 8.02 µM | [9] 9.64 µM | [10] > 24 µM | [11] 4.06 µM | [12] 6.73 µM | [13] 6.76 µM | [14] 20.8 µM | [15] 4.85 µM | [19] 31.1 µM | [16] 3.75 µM | [17] 3.94 µM | [18] 35.3 µM

CCOc1ccc2nc(NC(=O)C(=O)C(C#N)CC(C)(C)C=O)sc2c1 (configuration not stated)
inactive: [1] > 100 µM | [2] > 100 µM | [3] > 100 µM | [4] > 100 µM | [5] > 100 µM | [6] > 100 µM | [7] > 100 µM | [8] 21 µM | [10] > 100 µM | [11] > 100 µM | [12] > 100 µM | [13] > 100 µM | [14] 44.2 µM | [15] > 100 µM | [16] 52.7 µM | [17] > 100 µM | [18] > 100 µM

CCOC(=O)[C@H]1Nc2ccc(Cl)cc2[C@H]2CCC[C@@H]12
inactive: [1] 92.3 µM | [2] > 100 µM | [3] 88.3 µM | [4] > 100 µM | [5] > 100 µM | [6] > 100 µM | [7] > 100 µM | [8] > 100 µM | [9] > 100 µM | [10] > 100 µM | [11] > 100 µM | [12] > 100 µM | [13] 55.3 µM | [14] > 100 µM | [15] > 100 µM | [16] > 100 µM | [17] > 100 µM | [18] 22 µM

CC(C)N(C(=O)C12C3C4C1C1C4(C#N)C3C12C(=O)O)C(C)C (configuration not stated)
inactive: [1] > 100 µM | [2] > 100 µM | [3] 97.9 µM | [4] > 100 µM | [5] > 100 µM | [6] > 100 µM | [7] > 100 µM | [8] 16.8 µM | [9] > 60.3 µM | [10] > 100 µM | [11] > 100 µM | [12] > 100 µM | [13] > 100 µM | [14] > 93.8 µM | [15] > 100 µM | [16] > 69.8 µM | [17] > 100 µM | [18] > 100 µM

C[C@H]1[C@H](C)CC[C@]2(C(=O)O)CCC3(COC(=O)/C=C/c4ccc(O)cc4)C(=CCC4[C@@]5(C)CC[C@H](O)C(C)(C)C5CC[C@]43C)[C@H]12 (some centres not stated)
inactive: [1] 11 µM | [2] 19.1 µM | [3] 2.61 µM | [4] 9.4 µM | [5] 7.82 µM | [6] 10.8 µM | [7] 4.67 µM | [8] 3.91 µM | [9] 3.36 µM | [10] 5.11 µM | [11] 3.46 µM | [12] 7.91 µM | [13] 3.72 µM | [14] 5.24 µM | [15] 2.69 µM | [16] 2.86 µM | [17] 3.99 µM | [18] 14.7 µM

CC(OC(C)(C)C)C(NC(=O)C(CCCCNC(=O)OC(C)(C)C)NC(=O)C(Cc1c[nH]c2ccccc12)NC(=O)C(N)Cc1ccccc1)C(=O)NC(Cc1ccccc1)C(=O)NC1(C(=O)O)CCCC1 (configuration not stated) (H-FWK(Boc)T(tBu)F[Ac5c]-OH; configuration not given here)
inactive: [1] > 100 µM | [2] > 100 µM | [3] > 100 µM | [4] > 100 µM | [5] > 100 µM | [6] > 100 µM | [7] > 100 µM | [9] > 100 µM | [10] > 100 µM | [11] > 100 µM | [12] > 100 µM | [13] > 100 µM | [14] > 100 µM | [15] > 100 µM | [19] > 100 µM | [16] > 100 µM | [17] > 100 µM | [18] > 100 µM
